The values that follow come from patent US10537535B2, “Histone deacetylase inhibitors” (The Regents of the University of California, priority 2015, dated 2020).

Assay [1] concerns H3K9 acetylation in HEK293 cells. The experiment in a line: Western blot of histone acetylation in HEK293 nuclear extracts: H3K9. In kind it is cell-based, human. As to the method: The effect of diacetyl on histone acetylation was further investigated using direct analysis of histone 3K9 acetylation in HEK cells. In vivo activity of diacetyl was determined by gel electrophoresis chromatography of HEK cell lysate exposed to 0 μM, 1 μM and 10 μM of diacetyl (odor 1) in whole HEK cell lysates. […] Proliferating cell nuclear antigen (PCNA; 29 kDa) is a nuclear protein included as a loading control for nuclear protein extracts.
(§1) In order to test whether diacetyl can increase acetylation of histones in vivo, human HEK293 cells were used, which offer a tractable system to prepare nuclear extracts. The cells were exposed to different doses of diacetyl for 2 or 6 hours, and monitored histone acetylation levels by Western blot analysis from nuclear extract. […] The acetylation levels of H3K14 and H4K5 were not affected (FIG. 5A).
(§2) Human embryonic kidney 293 (HEK293) cells were grown in 100 mm cell culture dishes with Dulbecco's modified Eagle's medium (DMEM) (10-013, Corning, Manassas, Va.), supplemented with 10% fetal bovine serum (FBS) (26140-079, Gibco, Carlsbad, Calif.) at 37° C. with 5% CO2. Cells that were ˜80% confluent were treated with freshly-prepared medium supplemented with diacetyl at concentrations indicated. In order to prevent diffusion of diacetyl odor from the treatment dishes to the outside environment, the cell culture dishes were put into a custom-made container (155.6×155.6×85.7 mm) with a charcoal filter top. The cells for non-treatment controls were handled in the same manner without adding diacetyl to the medium.
Nuclear extracts of HEK293 cells were prepared according to a protocol described previously (Andrews and Faller, 1991), with minor modifications. In brief, HEK293 cells were washed twice with cold phosphate-buffered saline (PBS) and lysed with hypotonic buffer (10 mM HEPES-KOH [pH 7.9], 1.5 mM MgCl2, 10 mM KCl, protease inhibitor cocktail [Roche], 1 mM DTT, 1 mM TSA). Following a brief centrifugation, the pellet was resuspended in hypertonic buffer (20 mM HEPES-KOH [pH 7.9], 25% glycerol, 420 mM NaCl 1.5 mM MgCl2, 0.2 mM EDTA, protease inhibitor cocktail (04693159001, Roche, Indianapolis, Ind.), 1 mM DTT, 1 mM TSA). The supernatant was recovered as nuclear extract.
(§3) Proteins in the nuclear extracts (60 μg protein) were separated by SDS-PAGE gels (456-1043, Bio-Rad, Hercules, Calif.), transferred onto PVDF membranes (162-0174, Bio-Rad), and incubated with anti-histone antibodies: acetylated H3K9 (1/2000: ab4441, abeam, Cambridge, Mass.), acetylated H3K14 (1/5000: 06-911, EMD Millipore, Billerica, Mass.), acetylated H4K5 (1/2000: 07-327, EMD Millipore). Bound antibody was detected by horseradish peroxidase-conjugated anti-rabbit secondary antibody (1/20000: 1705046, Bio-Rad) and developed using Clarity™ Western ECL Substrate (1705060, Bio-Rad). Signals were detected and captured by ImageQuant™ LAS 4000 mini (GE healthcare, Pittsburgh, Pa.), and band intensities were quantified with ImageJ software. H3K9 acetylation intensity in individual lanes was reported relative to the normalized Mock treatment (Mock H3K9ace/Mock PCNA), and calculated using this formula: Relative H3K9ace intensity for each timepoint=(Diacetyl H3K9ace/diacetyl PCNA)/(Mock H3K9ace/Mock PCNA).

For assay [2], the system named is H3K14 acetylation in HEK293 cells. The experiment in a line: Western blot of histone acetylation in HEK293 nuclear extracts: H3K14. In kind it is cell-based, human. On the procedure:
as §1
as §2, with “The cells for non-treatment controls were handled in the same manner without adding diacetyl to the medium.” left out
as §3
Background: In western blotting, separated proteins are transferred to a membrane and probed.

Another assay concerns Gr63a. The experiment in a line: Whole mount RNA in situ of adult Drosophila antenna Gr63a. In kind it is in vivo. The settings on record: 5 days; odor 1 1% on filter paper, sodium butyrate 10 mM fed; vs untreated or mock. On the procedure: For five days, Drosophila were exposed to 1% diacetyl (odor 1) on filter paper; fed known HDAC inhibitor sodium butyrate (Na-but; 10 mM); or fed known HDAC inhibitor valproic acid (10 mM).

In another assay the test system is pGMR-HTTQ120 flies. The experiment in a line: Huntington's model Drosophila (pGMR-HTTQ120), rhabdomere count by pseudopupil analysis. In kind it is in vivo. From the text:
To investigate the effect of diacetyl on neurodegeneration, Huntington model Drosophila flies (GMR-HTTQ120; expressing human huntington HTTQ120 protein from a GMR promoter) were exposed to odor 1 (diacetyl) at 1% concentration from filter paper for five days as a volatile scent. Following exposure, the omatidia in the eyes of the flies were visualized. […] The number of rhabdomeres present in the omatidia were counted (wildtype flies have 7 rhabdomeres in each omatidia).
When the transgenic flies expressing two copies of the human Huntington with poly-Q repeats (HTTQ120) under control of the eye-specific GMR promoter were raised at 18° C., the number of rhabdomeres in each ommatidium was similar to that of control flies (7) immediately post-eclosion (day 1, FIGS. 8A-8C). […] The mean number of rhabdomeres was reduced from 7 to ˜1 by day 10.
Flies were exposed to diacetyl in a cylindrical container (112 mm diameter×151 mm height). Each container was tightly closed but had 2 holes, one of which connected to an air suction port, and the other to a vial containing either of 5 mL paraffin oil or 5 mL 1% diacetyl in paraffin oil. A gentle suction was applied to pull the headspace from the odor or paraffin oil vials into the cylindrical structure (FIG. 11). pGMR-HTTQ120 flies were maintained at 18° C. Adult flies aged 1 d were transferred to fly vials containing fresh medium, and put into the odor-filled container at room temperature. Paraffin oil and 1% diacetyl solution were prepared and replaced every day. At the end of the fifth day of exposure, half of the flies were collected and subjected to pseudopupil analysis. The remaining flies were transferred to fresh medium and exposed to the odors for an additional 5 days. All treatments and experiments were performed at room temperature.
Pseudopupil Analysis was performed according to a protocol described previously (Song et al., 2013). Flies were decapitated and mounted on a microscope slide by dipping in a drop of nail polish. The arrangement of rhabdomeres in the ommatidia of the compound eyes were analyzed with Axio Imager M2 (Carl Zeiss, Oberkochen, Germany) using a 63× objective, and photographed with Axiocam 506 mono (Carl Zeiss). Six hundred ommatidia from 30 eyes of 15 flies were scored for each condition.

With `CC(=O)C(C)=O` [diacetyl, 2,3-Butanedione], the H3K9 acetylation level entry in assay [1] (100 μM, 120 hrs) is reported as “significantly higher levels”; in assay [1] (100 μM, prolonged exposure 3-5 days, onset), “increased only after 96 hrs”; in assay [1] (1 mM, 2 or 6 hours) it was “did not alter”; in assay [1] (10 mM, 2 hours, vs mock) it was “significantly increased”; in assay [1] (10 mM, 6 hours), “further increased”. For the same molecule, the “level of acetyl H3K9 (H3K9Ace)” value in assay [1] (HEK cells, 0 μM, 1 μM and 10 μM, FIG. 1D) is “increased with increasing concentrations”. The H3K14 acetylation level result is “did not alter” in assay [2] (1 mM, 2 or 6 hours); “not affected” in assay [2] (10 mM, 2 hours); “unaffected” in assay [2] (10 mM, 6 hours). In addition, the “Gr63a expression in antenna (RNA in situ)” value with Gr63a was “over-expression”. Besides, the “rhabdomeres left in the majority of ommatidia” value in the assay on pGMR-HTTQ120 flies (1% headspace, after 10 days, solvent controls ~1-2) is on record as 2-3 rhabdomeres. For the same molecule, the “rhabdomeres retained in the majority of ommatidia” value in the assay on pGMR-HTTQ120 flies (1% headspace, day 5) was 6-7 rhabdomeres. In the assay with pGMR-HTTQ120 flies (GMR-HTTQ120 flies, 1% from filter paper, five days, FIG. 2A), the “rhabdomeres in omatidia vs not exposed flies” value is “greater rhabdomeres”. The “inhibition of rhabdomere loss” value in the assay on pGMR-HTTQ120 flies (volatile headspace of 1% diacetyl in paraffin oil, after eclosion, 25° C.) came to 50%.
